Assay results taken from patent US20100300896A1, “Redox Molecules And Methods Of Making The Same” (BAYER HEALTHCARE LLC, priority 2009, published 2010).
Read-outs that look alike come from different tables or passages of the source.

How the values were obtained:
[1] = conventional mediator, buffer not stated; cited from earlier work
[2] = Voltammetric scan of the mediator: output current in response to input potential (glassy carbon WE, Ag/AgCl RE, platinum CE); type: physicochemical; conditions: for redox potential: mediator 1 mg/mL
Description: FIGS. 1A and 1B depict graphs illustrating output currents from mediator reduction in response to an input potential. The mediator was a composition including a 3:2 molar mixture of a first compound having the general formula (I), and a second compound having the general formula (II), where X is bromine and each compound is present as the disodium salt. A 5 mm glassy carbon electrode served as a working electrode (WE), Ag/AgCl as a reference electrode (RE), and platinum gauAge as a counter electrode (CE). In FIG. 1A, the mediator composition was present at a concentration of 1 mg/mL in a mixture containing 10 mM PBS buffer (pH 7.4), and the input potential was scanned between −200 mV and 200 mV vs. Ag/AgCl. In FIG. 1B, the mediator composition was present at a concentration of 1 mg/mL in a mixture containing 100 mM PBS (pH 7.0) and 100 mM NaCl buffer solution, and the input potential was scanned between −100 mV and 200 mV vs. Ag/AgCl. Referring to FIG. 1B, when the scan rate was less than 50 mV/s, the oxidative and reductive peak separation was around 30-40 mV. […] The redox potential of the mediator composition of FIGS. 1A and 1B was about −3 mV vs. Ag/AgCl in the 10 mM PBS buffer (pH 7.4), and was about 40 mV vs. Ag/AgCl in the mixture of 100 mM PBS (pH 7.0) and 100 mM NaCl buffer. These redox potentials are similar to that of the conventional mediator (E)-2-(3H-phenothiaAgine-3-ylideneamino)benAgene-1,4-disulfonic acid (Structure A), which is −50 mV vs. Ag/AgCl. FIG. 5A and FIG. 5B depict graphs illustrating output currents from mediator reduction in response to an input potential. The mediator was a compound having general formula (III), where X is bromine. A 5 mm glassy carbon electrode served as a WE, Ag/AgCl as a RE, and platinum gauAge as a CE. In FIG. 5A, the mediator was present at a concentration of 1 mg/mL in a mixture containing 10 mM PBS buffer (pH 7.4), and the input potential was scanned between −200 mV and 200 mV vs. Ag/AgCl. […]

[3] = Open circuit voltage between working electrode and reference electrode; type: physicochemical; conditions: 10 mM PBS buffer
Experimental: The open circuit voltage between the WE and the RE also was measured for the mediator composition of FIGS. 1A and 1B. The open circuit voltage is a measure of the redox state of the mediator.
The open circuit voltage between the WE and the RE also was measured for the compound having general formula (III), where X is bromine.

glucose dehydrogenase = experiment: Output current from mediator in a mixture containing glucose and glucose dehydrogenase; type: biochemical; conditions: mediator 3 mg/mL, 10 mM PBS buffer (pH 7.4), input potential 100 mV vs. Ag/AgCl, glucose 0 to 1.2 mM
Experimental: FIG. 2 depicts a graph illustrating output currents from mediator oxidation in response to an input potential when the mediator is in a mixture containing glucose and glucose dehydrogenase. The mediator was the composition used in FIGS. 1A and 1B. A 5 mm glassy carbon electrode served as a WE, Ag/AgCl as a RE, and platinum gauAge as a CE. The composition was present at a concentration of 2 mg/mL in a mixture containing 10 mM PBS buffer (pH 7.4), and the input potential was 100 mV vs. Ag/AgCl. […] Thus, the composition may be used as a mediator for the redox reaction correlating the glucose concentration in a sample with an electrical signal. Referring to FIG. 2, a compound having general formula (III), where X is bromine, can be used as a mediator for the redox reaction correlating the glucose concentration of a sample with an electrical signal. A 5 mm glassy carbon electrode served as a WE, Ag/AgCl as a RE, and platinum gauAge as a CE. The mediator was present at a concentration of 3 mg/mL in a mixture containing 10 mM PBS buffer (pH 7.4), and the input potential was 100 mV vs. Ag/AgCl. […] Thus, the composition may be used as a mediator for the redox reaction correlating the glucose concentration in a sample with an electrical signal.

Row | SMILES | redox potential [1] | redox potential ([2]; 10 mM PBS buffer (pH 7.4)) | redox potential ([2]; mixture of 100 mM PBS (pH 7.0) and 100 mM NaCl buffer) | oxidative and reductive peak separation ([2]; scan rate less than 50 mV/s, 100 mM PBS (pH 7.0) and 100 mM NaCl buffer, 1 mg/mL) | open circuit voltage [3] | output current vs glucose concentration (glucose dehydrogenase)
1 | O=S(=O)(O)c1ccc(S(=O)(=O)O)c(/N=c2\ccc3nc4ccccc4sc-3c2)c1 [Structure A, (E)-2-(3H-phenothiaAgine-3-ylideneamino)benAgene-1,4-disulfonic acid] | −50 mV vs. Ag/AgCl |  |  |  |  | 
2 | O=S(=O)(O)c1ccc(S(=O)(=O)O)c(N=c2cc3sc4ccccc4nc-3cc2OCCCCCCCCBr)c1 [2-(2-(8-bromooctanoxy)-3H-phenothiaAgin-3-ylideneamino)benAgene-1,4-disulfonic acid] |  | about 3 mV vs. Ag/AgCl | about 15 mV vs. Ag/AgCl | 30-40 mV | 111 mV vs. Ag/AgCl | output current increased as the glucose concentration increased from 0 to 1.2 mM
